Test results as given in patent US7094869B2, “Low molecular weight peptidomimetic growth hormone secretagogues” (Genentech, Inc., priority 1994, dated 2006).
“Also recorded” adds a separate entry of the source. Where two headings read alike, the source gives them in different places. Non-standard residues stand in square brackets, D forms with d. Residues, ends and D or L forms follow the SMILES beside them. No end group written: not given here.

Key:
rat pituitary cells [1] = molecular target: T1, rat pituitary cells (Rattus norvegicus, UniProt O08725)
T1 sequence (O08725 whole entry): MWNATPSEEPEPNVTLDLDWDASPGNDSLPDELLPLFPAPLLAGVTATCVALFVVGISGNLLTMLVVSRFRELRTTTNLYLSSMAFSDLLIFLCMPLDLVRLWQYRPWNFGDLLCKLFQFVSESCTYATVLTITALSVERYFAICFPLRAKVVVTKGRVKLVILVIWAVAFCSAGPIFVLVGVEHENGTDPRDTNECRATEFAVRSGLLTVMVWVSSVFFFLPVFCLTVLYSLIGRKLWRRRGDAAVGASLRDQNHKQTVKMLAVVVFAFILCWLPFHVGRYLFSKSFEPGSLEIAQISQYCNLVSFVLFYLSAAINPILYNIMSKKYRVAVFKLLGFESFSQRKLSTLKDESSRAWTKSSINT
Summary of the method: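 Primary rat anterior pituitary cells, cultured three days in DME low glucose/10% FBS, were washed, pre-incubated twice for 15 min, then challenged 15 min with test compounds (DMSO ≤0.1%) at 37 °C. Released GH was measured by two-site ELISA; EC50 came from 4-parameter fits, mean of three to four independent determinations.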

growth hormone secretion = experiment: GHRP induced growth hormone secretion, intravenous administration (Rat IV); type: in vivo; conditions: Table II; iv tail vein injection, anesthetized weanling female rats, serum GH 10 min after injection
Summary of the method: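 Female Sprague Dawley rats (24-30 days, 50-90 g) under intraperitoneal pentobarbitone received graded intravenous tail-vein peptide doses in pH 5.0 sodium acetate/mannitol buffer 20 min post-anaesthesia. Blood by cardiac puncture 10 min after dosing; serum GH measured by rat GH ELISA in duplicate.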

rat pituitary cell = conditions: cited from earlier work
[2] = oral; cited from earlier work
[3] = Combination GHRP and IGF-1 treatment of normal rats (7 days); type: in vivo, rat; conditions: 7 days, twice daily sc injections, normal adult female rats; GHRH 300, GHRPs 50, L-692,585 150 μg/dose
Method: The rats were weighed on the day of surgery and randomized into 12 groups of 5/group using a grouping program.
The GH secretagogues were given by sc. injection twice daily, each dose of 100 μl. […] Recombinant human IGF-1 (rhIGF-1) at 2.5 mg/ml in acetate buffer was loaded into osmotic minipumps (Alza, Palo Alto, model 2ML1, pump rate 10.16 μl/hr for 7 days, fill volume 2086 μl). Other pumps were filled with acetate buffer. […] The delivered dose of rhIGF-1 was therefore 610 μg/day.
The next day the osmotic pumps were inserted into rats. […] All rats not receiving rhIGF-1 containing pumps were implanted with pumps delivering the acetate buffer excipient. […] The treatment groups were;
The rats were sacrificed using carbon dioxide, bled from the heart and organs taken. Serum chemistries were measured by standard automated procedures.

rat pituitary cells [4] = molecular target: T1, rat pituitary cells; experiment: Rat “pit” cell challenges: combinations with GHRP-6/GHRH, desensitization, somatostatin suppression, GHRP antagonist; type: cell-based
Method: Dispersion: Adult female Sprague-Dawley (160-180 g., Charles River) rats were group-caged in a 12:12 light:dark cycle with food and water available ad libitum. Pituitaries from ten rats were removed, the posterior pituitary discarded and the anterior pituitary placed in Hanks' Balanced Salt Solution (HBSS: without calcium chloride, w/o magnesium chloride, w/o magnesium sulfate; Gibco) containing 20 mM HEPES (Gibco) and 100 U/ml penicillin streptomycin (PS: JRH Biosciences). Under sterile conditions, pituitaries were rinsed twice then minced into small fragments with a razor blade. Fragments were resuspended in 5 ml of HBSS/HEPES containing 20 mg collagenase (Serva 17449) and 200 ml of 1 mg/ml DNase (Sigma) for a 40 min. incubation in a 37° C. gyrotory water bath shaker (New Brunswick Scientific Model G76; setting 10). After the incubation, fragments were triturated to yield small clumps and single cells. The cells were centrifuged 1000× g for 5 min, resuspended, counted and plated at a final cell concentration of 100,000 cells/ml. Incubation media was DME low glucose media w/NaHCO3 (Gibco) containing 20 mM hepes, 100 U/ml PS and 10% FBS (Hyclone A-111-L). Cells were plated at 0.5 ml per well in 48 well plates (Falcon) and incubated at 37° C. in 5% C02 for three days. […] The highest concentration of DMSO in media was 0.1%. Stock solutions (1 mM) of rat GHRH, somatostatin (Sigma) and GHRP antagonist HwkWfK were made fresh in media and diluted appropriately. The media used in all challenges and washing steps was DME low glucose with 20 mM Hepes, 100 U/ml PS, 10% FBS. Media was warmed to 37° C. and gassed by placing it into the incubator prior to challenge. On day three, the media was discarded and fresh media (approximately 1 ml) added for the first of three washes. After the last wash, the plate was placed back in the incubator for a 15 min pre-incubation. Then cells were washed 2× (with warmed and gassed media) and fresh 0.5 ml media were added for the second 15 min. pre-incubation. After the second pre-incubation cells were washed 2× as above and 0.5 ml of control and test solutions were added for a final 15 min incubation. After this incubation, the media were removed for subsequent GH ELISA. GH ELISA: A two-site ELISA was used to determine rat GH concentration in the media. Briefly, goat anti-rat GH antibody (lot#19164-20) was used to coat Nunc immunoplates overnight. After blocking and washing, standard (rat GH reference preparation: Parlow) and challenge media is diluted 1:20 prior to GH assay were added for a 1 hr room temperature incubation. STATISTICS: The mean for each group was determined and analyzed by one-way analysis of variance with a post-hoc Student-Newman-Keuls. Significance is defined as P<0.05. The EC50 was calculated using a 4-parameter curve-fit program (Kaleidagraph). Three to four independent EC50s were used to derive the mean and SEM.

ACTH = ACTH release from pituitary cells (RIA); type: cell-based, rat
Method: Dispersion: Adult female Sprague-Dawley (160-180 g., Charles River) rats were group-caged in a 12:12 light:dark cycle with food and water available ad libitum. Pituitaries from ten rats were removed, the posterior pituitary discarded and the anterior pituitary placed in Hanks' Balanced Salt Solution (HBSS: without calcium chloride, w/o magnesium chloride, w/o magnesium sulfate; Gibco) containing 20 mM HEPES (Gibco) and 100 U/ml penicillin streptomycin (PS: JRH Biosciences). Under sterile conditions, pituitaries were rinsed twice then minced into small fragments with a razor blade. Fragments were resuspended in 5 ml of HBSS/HEPES containing 20 mg collagenase (Serva 17449) and […] of 1 mg/ml DNase (Sigma) for a 40 min. incubation in a 37° C. gyrotory water bath shaker (New Brunswick Scientific Model G76; setting 10). After the incubation, fragments were triturated to yield small clumps and single cells. The cells were centrifuged 1000× g for 5 min, resuspended, counted and plated at a final cell concentration of 100,000 cells/ml. Incubation media was DME low glucose media w/NaHCO3 (Gibco) containing 20 mM hepes, 100 U/ml PS and 10% FBS (Hyclone A-111-L). Cells were plated at 0.5 ml per well in 48 well plates (Falcon) and incubated at 37° C. in 5% C02 for three days. For challenges to determine release of other pituitary hormones cells were plated at 200,000 cells per ml with 2 ml per well of a Swell plate (Corning). Challenge: A (inip)bbFK-NH2 stock (or other GHRP) concentration of 1 mM was made in DMSO and diluted with warmed media approximately 30 min prior to use. The highest concentration of DMSO in media was 0.1%. […] STATISTICS: The mean for each group was determined and analyzed by one-way analysis of variance with a post-hoc Student-Newman-Keuls. […] The EC50 was calculated using a 4-parameter curve-fit program (Kaleidagraph). […] RIA of pituitary hormones: LH, FSH, TSH, and Prolactin were determined with commercially available kits from Amersham, and ACTH levels were determined by a RIA kit from ICN. […]

[5] = read-out: “Pit” Cell EC50, Table II, prior art compounds, GH release, 15 min incubation

Compound: CC(C)(N)CC(=O)N[C@@H]1CCc2ccccc2N(Cc2ccc(-c3ccccc3-c3nnn[nH]3)cc2)C1=O [L-692,429, reference compound]
- EC50 (rat pituitary cells [1]; [5]): 26.2 nM
- Rat IV ED50 (growth hormone secretion): 100 µg
- fold less potent than GHRP-6 (rat pituitary cell): about 6 fold

Compound: C[C@H](NC(=O)[C@@H](Cc1c[nH]c2ccccc12)NC(=O)[C@@H](N)Cc1c[nH]cn1)C(=O)N[C@@H](Cc1c[nH]c2ccccc12)C(=O)N[C@H](Cc1ccccc1)C(=O)N[C@@H](CCCCN)C(N)=O [GHRP 6, His-D Trp-Ala-Trp-D Phe-Lys-NH2, reference compound] (H-H[dW]AW[dF]K-NH2)
- absorbed orally [2]: ~0.3%
- EC50 (rat pituitary cells [1]; read-out: mean EC50, mean ± SE of independent EC50s): 6.2 ± 1.5 nM
- body weight gain (in words) [3]: significant body weight gain
- Rat IV ED50 (growth hormone secretion): 1.0 µg
- GH response compared with control (rat pituitary cells [4]; 100 nM): significantly greater than control
- increase in GH levels over control (rat pituitary cells [4]; 100 nM): 3 fold
- GH release in combination with GHRH (rat pituitary cells [4]; GHRP 100 nM plus GHRH 10 or 100 nM): show synergy with 10 nM GHRH; also recorded: synergistic; also recorded: showed synergy with GHRH

Compound: C[C@@H](O)CNC(C)(C)CC(=O)N[C@@H]1CCc2ccccc2N(Cc2ccc(-c3ccccc3-c3nnn[nH]3)cc2)C1=O [L-692,585, reference compound]
- EC50 (rat pituitary cells [1]; [5]): 10.6 nM
- body weight gain (in words) [3]: no significant weight gain
- Rat IV ED50 (growth hormone secretion): 10 µg
- potency in the rat pituitary cell assay (rat pituitary cell): slightly greater than GHRP-6

Compound: CRF: corticotrophin releasing factor (SEEPPISLDLTFHLLREVLEMARAEQLAQQAHSNRKLMEII; ends and bridges not checked; UniProt P06850 154-194, looked up) [reference compound]
- rise in ACTH levels (ACTH): 3 fold
